Reference: PubChem BioAssay (NCI)
Where “and” joins values, the source holds several entries; their conditions need not be identical. Equal entries are not always repeated.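 These data come from cells grown in 96-well plates and exposed to compound for 48 hours at five concentrations. GI50 marks 50% less growth. TGI denotes the concentration required for complete inhibition of growth.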

Experiments:
Assay in all cases: growth of human tumour cells (NCI), 48 h
MDA-MB-435 = system: MDA-MB-435
SW-620 colon = system: SW-620 colon
HCC-2998 colon = system: HCC-2998 colon
A498 renal = system: A498 renal
HCT-15 colon = system: HCT-15 colon
KM12 colon = system: KM12 colon
SF-539 CNS = system: SF-539 CNS
RXF 393 renal = system: RXF 393 renal
HT29 colon = system: HT29 colon
SR leukemia = system: SR leukemia

| Compound | GI50 (MDA-MB-435) | TGI (MDA-MB-435) | GI50 (SW-620 colon) | TGI (SW-620 colon) | GI50 (HCC-2998 colon) | TGI (HCC-2998 colon) | GI50 (A498 renal) | TGI (A498 renal) | GI50 (HCT-15 colon) | TGI (HCT-15 colon) | GI50 (KM12 colon) | TGI (KM12 colon) | GI50 (SF-539 CNS) | TGI (SF-539 CNS) | GI50 (RXF 393 renal) | TGI (RXF 393 renal) | GI50 (HT29 colon) | TGI (HT29 colon) | TGI (SR leukemia) [µM] | GI50 (SR leukemia) [µM] |
| --- | --- | --- | --- | --- | --- | --- | --- | --- | --- | --- | --- | --- | --- | --- | --- | --- | --- | --- | --- | --- |
| Cc1ccc2c(c1)n([O-])c(C(F)(F)F)c(C(=O)c1ccco1)[n+]2=O | 0.744 µM | 2.65 µM | 0.966 µM | 8.15 µM | 0.716 µM | 1.67 µM | 1.21 µM | 3.21 µM | 0.562 µM | 7.62 µM | 0.667 µM | 2.49 µM | 0.918 µM | 2.67 µM | 0.622 µM | 2.91 µM | 2.07 µM | 20.7 µM |  |  |
| Cc1cc(NCCCCCCCCNc2cc(C)nc3cc(N(C)C)ccc23)c2ccc(N(C)C)cc2n1 |  |  |  | 87.6 µM |  |  |  | 42.6 µM |  | > 100 µM |  | 19.6 µM |  |  |  | 28.7 µM |  |  | 43.9 |  |
| Clc1cc2ns[s+]c2cc1Cl |  |  |  | > 100 µM |  | > 100 µM |  | > 100 µM |  | > 100 µM |  | > 100 µM |  | > 100 µM |  | > 100 µM |  | > 100 µM | > 100 |  |
| O=C(NNC(=O)/C(=C/c1cccc([N+](=O)[O-])c1)NC(=O)c1ccccc1)Nc1ccc(Cl)cc1 |  |  |  | 28.5 µM |  | 25.8 µM |  | 23.4 µM |  | 24.7 µM |  | 24.7 µM |  | 35.1 µM |  | 25.6 µM |  | 27.8 µM | 28.1 |  |
| [N-]=[N+]=NCCCn1c2c(c3ccccc3c1=O)C(=O)c1cc3c(cc1-2)OCO3 | > 100 µM | > 100 µM | > 100 µM | > 100 µM |  |  | 75 µM | > 100 µM | > 100 µM | > 100 µM | > 100 µM | > 100 µM | 20.9 µM | > 100 µM | > 100 µM | > 100 µM |  |  | > 100 | 0.157 |
| CC1=NN(c2ccccc2)C(=O)C1N=Nc1ccc(Br)cc1C (stereo not drawn) |  |  |  | > 100 µM |  | > 100 µM |  | > 100 µM |  | > 100 µM |  | > 100 µM |  | > 100 µM |  | > 100 µM |  | > 100 µM |  |  |
| Nc1ncnc2c1ncn2Cc1ccc(CCl)cc1 | 15.4 µM | 32.9 µM | 12.8 µM | 30.2 µM | 14.2 µM | 29 µM | 12.6 µM | 31.9 µM | 21.9 µM | 41.5 µM | 13.6 µM | 37.2 µM | 16.7 µM | 38.4 µM | 20.3 µM | 62.2 µM |  |  |  |  |
| O=C(Nc1cccc(Cl)c1)Nc1cc(C(F)(F)F)ccc1Cl |  |  | 3.28 µM | 10.6 µM | 2.53 µM | 5.88 µM | 2.16 µM | 6.36 µM | 2.66 µM | 11.5 µM | 2.65 µM | 6.98 µM | 3.18 µM | 11.4 µM | 1.12 µM | 3.95 µM | 3.03 µM | 11.3 µM | 38 | 3.78 |
| O=c1[nH]c(C2CCCCC2)nc2ccc(Cl)cc12 |  |  |  | > 100 µM |  | > 100 µM |  |  |  | > 100 µM |  | > 100 µM |  | > 100 µM |  | > 100 µM |  | > 100 µM | > 100 |  |
| CNC(=O)c1cc(Oc2ccc(NC(=O)Nc3ccc(Cl)c(C(F)(F)F)c3)cc2)ccn1 | 1.96 µM and 1.82 µM and 1.84 µM | 5.74 µM and 4.33 µM and 4.92 µM | 4.26 µM and 3.05 µM and 2.87 µM | > 10 µM and 12 µM and 9.35 µM | 3.4 µM and 1.58 µM and 2.81 µM | > 10 µM and 3.11 µM and 8.92 µM | 3.1 µM and 2.27 µM and 2.15 µM | 9.48 µM and 6.38 µM and 6.52 µM | 2.76 µM and 3.18 µM and 2.65 µM | > 10 µM and 12.3 µM and 9.84 µM | 2.42 µM and 1.86 µM and 1.8 µM | > 10 µM and 8.07 µM and 6.97 µM | 1.97 µM and 2.32 µM and 1.62 µM | > 10 µM and 9.07 µM and 4.82 µM | 3.58 µM and 2.88 µM and 3.41 µM | > 10 µM and 9.26 µM and 9.86 µM | 2.54 µM and 2.45 µM and 2.36 µM | > 10 µM and 8.39 µM and 9.02 µM |  |  |
| c1ccc2cc(Cn3c(-c4cccc5ccccc45)[n+](Cc4ccc5ccccc5c4)c4c5ccccc5c5ccccc5c43)ccc2c1 | 0.359 µM | 1.38 µM |  |  | 0.328 µM | 1.59 µM | 0.193 µM | 0.779 µM | 0.398 µM | 1.88 µM | 0.285 µM | 1.2 µM |  |  |  |  |  |  |  |  |
| CN1C(=O)CC(CC(=O)C2CCCCC2=O)CC1=O (stereo not drawn) |  |  |  | > 100 µM |  | > 100 µM |  | > 100 µM |  |  |  | > 100 µM |  | > 100 µM |  | > 100 µM |  | > 100 µM | > 100 |  |
| CCN(CC(O)COc1ccc2c(c1)[n+]([O-])nc(N)[n+]2[O-])C(C)=O (stereo not drawn) |  | > 100 µM |  | > 100 µM |  |  |  | > 100 µM |  | > 100 µM |  | > 100 µM |  | > 100 µM |  |  |  | > 100 µM | > 100 |  |
| COc1cc(OC)c(OC)cc1/C=C/c1ccc2ccccc2n1 |  | > 10 µM |  | > 10 µM |  | > 10 µM |  |  |  | > 10 µM |  | > 10 µM |  | > 10 µM |  |  |  | > 10 µM | > 10 |  |
| CCCCCCCC(=O)[O-].N.N.N.N.N.[Co+3].[O-][Cl+3]([O-])([O-])[O-] |  |  | > 100 µM | > 100 µM | > 100 µM | > 100 µM | > 100 µM | > 100 µM | > 100 µM | > 100 µM | > 100 µM | > 100 µM | > 100 µM | > 100 µM |  |  | > 100 µM | > 100 µM |  |  |
| COC(=O)C1(N2CCOCC2)CCC([C@@H](c2ccccc2)C(C)[N+](=O)[O-])C1 (stereo partly drawn) |  | > 100 µM |  | > 100 µM |  | > 100 µM |  | > 100 µM |  | > 100 µM |  | > 100 µM |  | > 100 µM |  |  |  | > 100 µM | 60.4 |  |
| O=[N+]([O-])c1ccc(NC(c2ccccc2)c2ccc3cccnc3c2O)cc1 (stereo not drawn) | 0.422 µM | > 100 µM | 0.389 µM | > 100 µM | 0.418 µM | > 100 µM | 0.634 µM | 8.13 µM | 0.326 µM | > 100 µM | 0.449 µM | > 100 µM | 0.499 µM | > 31.9 µM | 0.698 µM | > 100 µM | 0.487 µM | > 100 µM |  |  |
| COc1ccc(C2[C@@H](Cl)C(=O)N2c2ccc(OC)cc2)cc1 (stereo partly drawn) |  |  |  | > 100 µM |  | > 100 µM |  | > 100 µM |  |  |  | > 100 µM |  | 49.8 µM |  | > 100 µM |  | > 100 µM | > 100 |  |
| O=S(=O)(O)c1ccc([Se][Se]c2ccc(S(=O)(=O)O)cc2)cc1 |  |  |  | > 100 µM |  | > 100 µM |  | > 100 µM |  | > 100 µM |  | > 100 µM |  | > 100 µM |  | > 100 µM |  | > 100 µM | 96.6 |  |
